Paper PMC10794345, “Analysis of vascular disruption in zebrafish embryos as an endpoint to predict developmental toxicity” (Archives of Toxicology, 2023)
Read-outs that look alike come from different tables or passages of the source.

What was measured:
[1] = tested on: zebrafish embryos, transgenic line Tg(kdr:EGFP); experiment: Number of ISVs by video subtraction in Tg(kdr:EGFP) zebrafish embryos; assay type: in vivo, zebrafish (D. rerio)
Protocol: (§1) Fertilized and normally developed embryos were selected according to Kimmel et al. ([1995]) with a dissection microscope (Olympus SZx7-ILLT) at 1 hpf. Depending on experiment, exposure was started within 2–3 h post-fertilization (16–128 cell stages) or at 24 hpf. Exposure was conducted in rectangular 96-well microplates (Clear Polystyrene, flat bottom, Uniplate, Whatman, GE Healthcare) covered by a lid with a test volume of 400 µL of exposure media. For each replicate one embryo per well and 16 wells per concentration were assessed. Experiments were performed with at least two replicates on independent days and breeding.
(§2) To determine the number of ISVs in the trunk region, high-resolution images of 96 hpf-old zebrafish embryos were recorded using a Leica DM6B-Z microscope (Leica, Wetzlar, Germany) attached to the VAST imaging system, and a camera (Leica DFC9000 sCMOS, objective: HC APO L U-V-I 20x/0.50 WATER UV). A series of 20 images with a frame rate of 20 images per second and a 2 × 2 pixel binning was recorded in autofocus mode for each embryo. For the Tg(kdr:EGFP) strain, one additional fluorescence image was obtained using a fluorescent filter set (emission wavelength 540 nm, excitation filter BP 450–490) and a camera exposure time of 129 ms and a 2. × 2 binning in autofocus mode.
A series of MATLAB scripts (Supplement File ‘Workflow 3.m’ and ‘Workflow 4.m’) was used to convert the image series into a video and to visualize the blood vessel by applying a video subtraction approach (Figure SI1). Briefly, each video frame was subtracted from the average image of the whole image sequence and converted to a binary image by applying a Gaussian blur (σ = 5) and a threshold of 0.025 to obtain optimal contrast in binary images. Subsequently, the sum of all binary images was calculated. Due to movement of the blood cells the subtraction approach removed all parts from the image which were not moving resulting in an image of the blood vessels. This binary image of the blood vessel network in the zebrafish embryo tail was then processed with the FishInspector annotation software (version 1.70). […] The number of ISVs was obtained by application of a KNIME workflow to FishInspector annotation files. Subsequently concentration–response analysis was conducted using a KNIME workflow. The coefficient of variation (CV) of controls was calculated for both the subtraction and the fluorescence-based method by dividing the standard deviation of individual embryos with the control mean: CVControl=SD/Mean.
Concentration–response curves were fitted for lethality, heart rate, morphological features as previously described (Teixidó et al. [2019], [2022]). The assessment of lethality and morphological features was based on the percentage of embryos affected. Therefore, morphological endpoints were dichotomized, i.e. feature metrics were converted to the percentage of embryos deviating from controls. An embryo was considered to deviate when it was outside 1.5-fold of the standard deviation range of the mean of the control group. The control mean was determined by pooling control embryos across all experiments (n = 160) (available at git.ufz.de). For heart rate and angiogenesis (number of ISVs) the analysis was based on normalized values, i.e. for each experiment the values of the treatment were divided by the control value. The experiments were designed to calculate effect concentrations based on modelled curve fits. […]

[2] = tested on: zebrafish embryos (wild-type strain OBI/WIK); experiment: Lethality of zebrafish embryos at 96 hpf; assay type: in vivo, zebrafish (D. rerio); conditions: for Mortality (in words): embryos exposed from 24 hpf, compared to exposure from 3 hpf
Protocol: as §1
(§3) Concentration–response curves were fitted for lethality, heart rate, morphological features as previously described (Teixidó et al. [2019], [2022]). The assessment of lethality and morphological features was based on the percentage of embryos affected. Therefore, morphological endpoints were dichotomized, i.e. feature metrics were converted to the percentage of embryos deviating from controls. An embryo was considered to deviate when it was outside 1.5-fold of the standard deviation range of the mean of the control group. The control mean was determined by pooling control embryos across all experiments (n = 160) (available at git.ufz.de). For heart rate and angiogenesis (number of ISVs) the analysis was based on normalized values, i.e. for each experiment the values of the treatment were divided by the control value. The experiments were designed to calculate effect concentrations based on modelled curve fits. Different concentrations were used in at least two independent replicates, with means of each replicate based on the exposure of 16 different embryos per concentrations. Effect concentration were only modeled when three conditions were met. (1) The Tukey trend test based on the R package "tukeytrend" (Schaarschmidt et al. [2022]) was deriving a maximum p-value of 0.05. (2) The Akaike information criterion (AIC) for the log-logistic model was lower than the AIC for a linear model with slope 0 (lower p values for the letter would indicate that there is no trend in the data). (3) We calculated effect concentrations only if at least 30% of embryos for that endpoint were affected in at least one exposure concentration of (for normalized data) a reduction or increase by 30% was observed.

[3] = tested on: early life stage zebrafish; conditions: cited from earlier work
[4] = tested on: zebrafish embryos, transgenic line Tg(kdr:EGFP); experiment: Number of ISVs by fluorescence imaging in Tg(kdr:EGFP) zebrafish embryos; assay type: in vivo, zebrafish (D. rerio); conditions: exposure 24–96 hpf, 0.31–10 µM
Protocol: as §1
as §2, with “mode. […]” for “mode.”

[5] = Lethality of zebrafish embryos at 96 hpf; assay type: in vivo, zebrafish (D. rerio); conditions: OBI/WIK wild-type, zebrafish, in vivo, other: immersion of embryos in exposure media, ± 95% confidence intervals
Protocol: as §1, §3

Structure (SMILES) | EC10 (IC10) number of ISVs, subtraction image ([1]; Tg(kdr:EGFP), exposure 24–96 hpf, 0.31–10 µM) [µM] | EC50 ([1]; Tg(kdr:EGFP), exposure 24–96 hpf, 0.31–10 µM, read-out: EC50 (IC50) number of ISVs, subtraction image) [µM] | EC50 ([1]; arterial ISVs only, subtraction method, ± 95% confidence where given, read-out: aISVs EC50) [µM] | EC50 ([1]; subtraction method, ± 95% confidence where given, read-out: all ISVs EC50 (combined assessment)) [µM] | EC50 ([1]; venous ISVs only, subtraction method, ± 95% confidence where given, read-out: vISVs EC50) [µM] | LC50 ([2]; 3–96 hpf exposure, ± 95% confidence intervals) [µM] | Mortality (in words) [2] | IC50 ([3]; ref Tal et al. [2014], read-out: IC50 (ISV inhibition)) [µM] | EC10 (IC10) number of ISVs, fluorescent image [4] [µM] | EC50 ([4]; read-out: EC50 number of ISVs, fluorescent image) [µM] | LC50 ([5]; 3–96 hpf exposure) [µM] | LC50 ([5]; 24–96 hpf exposure) [µM] | Reduction (ISV) ([3]; late exposure scenario, 40 µM, ref Parng et al. [2002]) [%] | Concentration with complete ISV inhibition ([3]; late exposure scenario, ref Panneerselvan and Ragunathan [2018]) [µM] | Concentration with inhibition of ISV formation ([3]; ref Serbedzija et al. [1999]) [µM] | IC50 ([3]; ref Lin et al. [2019], read-out: IC50 from scoring system of different ISV length) [µM]
CN(C)c1ccc(C=C2C(=O)Nc3ccccc32)cc1 [SU4312] | 0.72 | 2.98 | 2.58 ± 3.12 | 2.98 | 0.75 ± 0.17 | 2.11 ± 0.22 | no | 1.8 | 1.17 | > 10 | – | – | – | – | – | –
Cc1cc(C)c(/C=C2\C(=O)Nc3ccccc32)[nH]1 [SU5416] | – | – | – | – | – | – | reduced | – | – | – | 0.89 ± 0.42 | 1.93 ± 0.83 | 40 | 2 | 1 | –
CNC(=O)c1cc(Oc2ccc(NC(=O)Nc3ccc(Cl)c(C(F)(F)F)c3)cc2)ccn1 [Sorafenib] | – | – | – | – | – | – | no | – | – | – | 2.8 ± 0.31 | – | – | – | – | 0.53
